Data as given in the supplement of paper PMC11061612.

What was measured:
Assay in all cases: Bliss excess, mean over the matrix (fraction); higher = more synergy
[1] = system: C3A (Hepatocellular Carcinoma)
Summary of the method: (§1)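 Bliss excess equals the observed combination effect minus the expected value EA + EB − EA·EB, where EA and EB are the effects of each agent alone. Combination Emax is the second-highest inhibition within the matrix. Inhibition was scaled from CellTiter-Glo 2.0 luminescence, with 0 set by vehicle wells and 1 by blank wells, after 72 hours of two-drug dosing of cells plated in 1536-well plates.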

[2] = system: KM-H2 (Hodgkin's Lymphoma)
Summary of the method: as §1

[3] = system: RH-1 (Ewing's Sarcoma)
Summary of the method: as §1

[4] = system: EM-2 (Chronic Myelogenous Leukemia)
Summary of the method: as §1

[5] = system: DB (B-Cell Non-Hodgkin's Lymphoma)
Summary of the method: as §1

[6] = system: MFH-ino (Other Solid Carcinomas)
Summary of the method: as §1

[7] = system: DOV13 (Ovarian Carcinoma)
Summary of the method: as §1

[8] = system: SK-N-FI (Neuroblastoma)
Summary of the method: as §1

[9] = system: G-292-Clone-A141B1 (Osteosarcoma)
Summary of the method: as §1

[10] = system: NCI-H1781 (Lung Adenocarcinoma)
Summary of the method: as §1

[11] = system: NCI-H1299 (Non-Small Cell Lung Carcinoma)
Summary of the method: as §1

[12] = system: DSH1 (Bladder Carcinoma)
Summary of the method: as §1

[13] = system: SN12C (Kidney Carcinoma)
Summary of the method: as §1

[14] = system: HPAC (Pancreatic Carcinoma)
Summary of the method: as §1

[15] = system: SW780 (Bladder Carcinoma)
Summary of the method: as §1

[16] = system: OCI-AML2 (Acute Myeloid Leukemia)
Summary of the method: as §1

[17] = system: NCI-H2595 (Mesothelioma)
Summary of the method: as §1

[18] = system: ES7 (Ewing's Sarcoma)
Summary of the method: as §1

[19] = system: 697 (B-Lymphoblastic Leukemia)
Summary of the method: as §1

[20] = system: KARPAS-1106P (B-Cell Non-Hodgkin's Lymphoma)
Summary of the method: as §1

SMILES	Bliss excess [1]	Bliss excess [2]	Bliss excess [3]	Bliss excess [4]	Bliss excess [5]	Bliss excess [6]	Bliss excess [7]	Bliss excess [8]	Bliss excess [9]	Bliss excess [10]	Bliss excess [11]	Bliss excess [12]	Bliss excess [13]	Bliss excess [14]	Bliss excess [15]	Bliss excess [16]	Bliss excess [17]	Bliss excess [18]	Bliss excess [19]	Bliss excess [20]
CC(=O)c1c(C)c2cnc(Nc3ccc(N4CCNCC4)cn3)nc2n(C2CCCC2)c1=O [Palbociclib] + Cn1cnc2c(F)c(Nc3ccc(Br)cc3Cl)c(C(=O)NOCCO)cc21 [Selumetinib] (first compound max 10 µM, 7x7, partner max 10 µM)	-0.0011	0.0036	-0.0379	0.0533	-0.0167	-0.0237	-0.233	0.016	-0.0291	-0.0532	0.108	-0.0834	-0.0321	0.0461	-0.0008	0.0685	-0.0429	0.0067	-0.0685	0.0399
COc1cccc(OCCCN)c1-c1cc(Nc2cnc(C#N)cn2)n[nH]1 [Prexasertib] + C=CCn1c(=O)c2cnc(Nc3ccc(N4CCN(C)CC4)cc3)nc2n1-c1cccc(C(C)(C)O)n1 [AZD1775] (first compound max 1 µM, partner max 1 µM)	0.0463	0.077	0.0653	0.0475	0.071	0.039	0.0963	0.0466	0.028	0.0258	-0.0148	0.112	0.0613	0.0323	0.0349	0.0655	0.0383	0.0597	0.0316	-0.0047
COc1cccc(OCCCN)c1-c1cc(Nc2cnc(C#N)cn2)n[nH]1 [Prexasertib] + CCc1c2c(nc3ccc(O)cc13)-c1cc3c(c(=O)n1C2)COC(=O)[C@]3(O)CC [SN-38] (first compound max 1 µM, 7x7, partner max 0.3 µM)	-0.112	-0.0411	-0.0177	-0.0352	-0.0299	-0.0321	-0.0444	0.0093	0.0081	-0.0105	-0.0161	0.0128	-0.0237	0.0446	-0.0348	-0.0094	0.0211	-0.012	0.0017	-0.124
COc1cccc(OCCCN)c1-c1cc(Nc2cnc(C#N)cn2)n[nH]1 [Prexasertib] + CN(C)CCCOc1ccc(-c2ccc3ncc4c(c3c2)n(C2CCOCC2)c(=O)n4C)cn1 [AZD0156] (first compound max 1 µM, 7x7, partner max 1 µM)	0.0035	-0.0337	0.0241	-0.0279	0.0289	0.0142	-0.0227	-0.0168	-0.0849	-0.0803	-0.0332	-0.0243	-0.0387	0.0404	-0.0232	-0.0276	-0.0573	-0.0329	-0.0087	-0.0308
COc1cccc(OCCCN)c1-c1cc(Nc2cnc(C#N)cn2)n[nH]1 [Prexasertib] + C[C@@H]1COCCN1C2=NC(=NC(=C2)C3(CC3)[S@](=N)(=O)C)C4=C5C=CNC5=NC=C4 [AZD6738] (first compound max 1 µM, 7x7, partner max 10 µM)	-0.034	-0.0214	0.0014	-0.0344	-0.0569	0.0457	0.0179	0.0336	0.0477	0.006	-0.0013	-0.0083	0.0012	-0.0351	0.0009	-0.021	-0.0279	-0.0416	0.0031	-0.0714
COc1cccc(OCCCN)c1-c1cc(Nc2cnc(C#N)cn2)n[nH]1 [Prexasertib] + Cc1cc2ncnn2cc1Nc1ncc2c(n1)n(C1CCOCC1)c(=O)n2C [AZD7648] (first compound max 1 µM, 7x7, partner max 10 µM)	-0.0264	-0.023	-0.0085	-0.0274	-0.0319	-0.0301	0.0069	-0.0084	-0.049	0.0024	-0.0577	-0.0289	-0.0816	-0.0074	0.001	-0.0211	-0.0172	-0.0483	-0.0293	-0.0595
COc1cccc(OCCCN)c1-c1cc(Nc2cnc(C#N)cn2)n[nH]1 [Prexasertib] + O=C(c1cc(Cc2n[nH]c(=O)c3ccccc23)ccc1F)N1CCN(C(=O)C2CC2)CC1 [Olaparib] (first compound max 1 µM, 7x7, partner max 10 µM)	-0.0461	-0.0611	-0.0203	0.0164	-0.0327	-0.0326	0.0032	-0.0683	-0.0443	-0.0036	-0.0694	-0.162	-0.0425	-0.149	-0.009	-0.0242	-0.0053	0.0058	0.0371	-0.0936
COc1cc2c(cc1OCCCCCOc1cc3c(cc1OC)C(=O)N1C=C(C)C[C@H]1C=N3)N=C[C@@H]1CC(C)=CN1C2=O [SG3199] + O=C(c1cc(Cc2n[nH]c(=O)c3ccccc23)ccc1F)N1CCN(C(=O)C2CC2)CC1 [Olaparib] (first compound max 0.001 µM, 7x7, partner max 10 µM)	-0.0528	0.0232	-0.0035	0.0107	-0.0272	-0.0739	-0.0443	-0.0296	-0.0571	-0.0305	-0.0381	-0.0442	-0.0697	-0.0232	-0.0497	-0.0546	-0.0437	0.0011	0.0376	-0.0202
CCc1c2c(nc3ccc(O)cc13)-c1cc3c(c(=O)n1C2)COC(=O)[C@]3(O)CC [SN-38] + CN(C)CCCOc1ccc(-c2ccc3ncc4c(c3c2)n(C2CCOCC2)c(=O)n4C)cn1 [AZD0156] (first compound max 0.3 µM, 7x7, partner max 1 µM)	-0.0646	0.0794	0.0845	0.0812	-0.0305	-0.0032	-0.0192	0.0628	-0.0508	0.0554	0.0495	-0.0382	0.011	0.0584	-0.0475	0.0764	-0.0399	0.0565	0.0689	-0.0346
C[C@@H](c1ccc2nccn2c1)n1nnc2ncc(-c3cnn(C)c3)nc21 [Savolitinib] + CC1(C)CCC(CN2CCN(c3ccc(C(=O)NS(=O)(=O)c4ccc(NCC5CCOCC5)c([N+](=O)[O-])c4)c(Oc4cnc5[nH]ccc5c4)c3)CC2)=C(c2ccc(Cl)cc2)C1 [Venetoclax] (first compound max 1 µM, 7x7, partner max 1 µM)	-0.0545	0	-0.0321	-0.0593	0.0216	-0.0657	-0.0552	-0.0537	-0.0442	-0.0702	-0.0418	0	-0.0152	-0.084	-0.0671	-0.0246	0.006	-0.0354	-0.114	-0.0157
C[C@@H](c1ccc2nccn2c1)n1nnc2ncc(-c3cnn(C)c3)nc21 [Savolitinib] + Cc1c2c(nn1C)CSCc1cc(n(C)n1)CSc1cc(c3ccccc3c1)OCCCc1c(C(=O)O)n(C)c3c-2c(Cl)ccc13 [AZD5991] (first compound max 1 µM, 7x7, partner max 1 µM)	-0.0229	-0.0286	0.0031	-0.0401	0.0299	-0.0572	-0.0518	-0.0077	-0.0381	-0.0293	-0.0519	0.0335	-0.0535	-0.0586	-0.0487	-0.0167	-0.052	-0.017	-0.0516	-0.0518
Cn1cnc2c(F)c(Nc3ccc(Br)cc3Cl)c(C(=O)NOCCO)cc21 [Selumetinib] + C=CCn1c(=O)c2cnc(Nc3ccc(N4CCN(C)CC4)cc3)nc2n1-c1cccc(C(C)(C)O)n1 [AZD1775] (first compound max 10 µM, partner max 1 µM)	-0.022	-0.0685	-0.0491	-0.0618	-0.193	-0.0316	-0.0631	-0.0433	-0.0458	-0.063	-0.02	-0.0355	-0.0228	-0.0467	-0.0555	0.0274	-0.0443	-0.0548	-0.0131	-0.0358
Cn1cnc2c(F)c(Nc3ccc(Br)cc3Cl)c(C(=O)NOCCO)cc21 [Selumetinib] + CC(C)n1c(=O)n(C)c2cnc3cc(F)c(-c4ccc(OCCCN5CCCCC5)nc4)cc3c21 [AZD1390] (first compound max 10 µM, 7x7, partner max 0.3 µM)	0.0046	-0.027	-0.0497	0.0304	-0.0488	-0.023	-0.0576	-0.0208	-0.0567	-0.0223	-0.012	-0.0002	-0.0313	-0.0401	-0.0542	-0.0079	-0.0415	-0.0301	-0.0227	-0.0376
Cn1cnc2c(F)c(Nc3ccc(Br)cc3Cl)c(C(=O)NOCCO)cc21 [Selumetinib] + CCN(CCO)CCCOc1ccc2c(Nc3cc(CC(=O)Nc4cccc(F)c4)[nH]n3)ncnc2c1 [AZD2811] (first compound max 10 µM, 7x7, partner max 1 µM)	-0.0272	-0.0193	-0.0239	-0.0526	-0.125	-0.045	-0.0915	0.0239	-0.0367	0.0045	-0.0205	0.0022	-0.0444	0.0816	-0.0198	0.0545	-0.0185	-0.0524	0.0059	0.0245
Cn1cnc2c(F)c(Nc3ccc(Br)cc3Cl)c(C(=O)NOCCO)cc21 [Selumetinib] + C[C@@H]1COCCN1C2=NC(=NC(=C2)C3(CC3)[S@](=N)(=O)C)C4=C5C=CNC5=NC=C4 [AZD6738] (first compound max 10 µM, 7x7, partner max 10 µM)	0.0471	-0.0148	-0.0215	0.0264	-0.0353	0.0029	-0.11	0.0325	-0.0303	-0.0397	0.0454	-0.0734	-0.0169	-0.0015	0.0087	0.0141	-0.0326	-0.0585	0.0344	-0.0007
